Melting point data for 28 compounds are collected here from US6444668B1 (Wyeth, priority 1999, dated 2002).

By melting point is commonly meant the temperature of the solid-liquid transition. In the case of `Cn1c(-c2ccc3c(c2)C(C)(C)OC(=O)N3)ccc1[N+](=O)[O-]` [Example 99, 4,4-Dimethyl-6-(1-methyl-5-nitro-1H-pyrrol-2-yl)-1,4-dihydro-benzo [d][1,3]oxazin-2-one], the melting point lay within 180 to 185 °C.
Under `CC(C)(C)OC(=O)n1c(-c2ccc3c(c2)C(C)(C)OC(=O)N3)ccc1[N+](=O)[O-]` [Example 95, 2-(4,4Dimethyl-2-oxo-1,4-dihydro-2H-benzo[d][1,3]oxazin-6-yl)-5-nitro-pyrrole-1-carboxylic acid tert-butyl ester] stands 125 °C; under `CCC1OC(=O)Nc2ccc(-c3cccc(Cl)c3)cc21` (stereo not shown) [Example 10, 6-(3-Chloro-phenyl)-4-ethyl-1,4-dihydro-benzo[d][1,3]oxazin-2-one], 146 to 148 °C; under `CC1(C)OC(=O)Nc2c(Br)cc(-c3ccc(F)c(Cl)c3)cc21` [Example 123, 8-Bromo-6-(3-chloro-4-fluorophenyl)-4,4-dimethyl-1,4-dihydro-2H-3,1-benzoxazin-2-one], 194 to 195 °C.
Under `COc1cc(C#N)cc(-c2ccc3c(c2)C(C)(C)OC(=O)N3)c1` [Example 63, 3-(4,4-Dimethyl-2-oxo-1,4-dihydro-2H-benzo[d][1,3]oxazin-6-yl)-5-methoxy-benzonitrile] stands 254 to 255 °C; under `O=C1Nc2ccc(-c3cccc(Cl)c3)cc2C(c2ccccc2)O1` (stereo not shown) [Example 11, 6-(3-Chloro-phenyl)-4-phenyl-1,4-dihydro-benzo [d][1,3]oxazin-2-one], 177 to 178 °C; under `CC1(C)OC(=O)Nc2c(F)cc(-c3cc(F)cc(C#N)c3)cc21` [Example 89, 3-Fluoro-5-(8-fluoro-4,4dimethyl-2-oxo-1,4-dihydro-2H-benzo[d][1,3]oxazin-6-yl)-benzonitrile], 256 to 257 °C.
`CC1(C)OC(=O)Nc2c(F)cc(-c3ccc(F)c(Cl)c3)cc21` [Example 71, 6-(3-Chloro-4-fluoro-phenyl)-8-fluoro-4,4-dimethyl-1,4-dihydrobenzo[d][1,3]-oxazin-2-one] registered a melting point of 246 to 248 °C.
The same measure for `COCN1C(=O)OC(C)(C)c2cc(-c3cc(F)cc(C#N)c3)ccc21` [Example 67, 3-Fluoro-5(1-methoxymethyl-4,4-dimethyl-2-oxo-1,4-dihydro-2H-benzo[d][1,3]oxazin-6-yl)-benzonitrile]: 169 to 171 °C; for `CC1(C)OC(=O)Nc2ccc(-c3cc(C#N)cs3)cc21` [Example 90, 5-(4,4-Dimethyl-2-oxo-1,4-dihydro-2H-benzo[d][1,3]oxazin-6-yl)thiophene-3-carbonitrile]: 255 to 260 °C.
The same measure for `CC1(C)OC(=O)Nc2ccc(-c3cccc(CC#N)c3)cc21` [Example 118, 3-(4,4Dimethyl-2-oxo-1,4-dihydro-2H-benzo[d][1,3]-oxazin-6-yl)phenylacetonitrile]: 188 to 190 °C.
Under `CC1(C)OC(=O)Nc2ccc(-c3cccc(CC#N)n3)cc21` [Example 132, [6-(4,4-dimethyl-2-oxo-1,4dihydro-2H-3,1-benzoxazin-6-yl)pyridin-2-yl]acetonitrile] stands 210 to 212.5 °C; under `CN1C(=O)OC(C)(C)c2cc(-c3cc(F)cc(Br)c3)ccc21` [Example 45, 6-(3-Bromo-5fluorophenyl)-1,4,4-trimethyl-1,4-dihydrobenzo[d][1,3]oxazin-2-one], 157 to 158 °C.
`O=C1Nc2ccc(-c3cccc(Cl)c3)cc2C2(CCCC2)O1` [Example 31, 6-(3-Chlorophenyl)-spiro-[4H-3,1-benzoxazine-4,1′-cyclopentane]-2(1H)-one] returned a melting point of 140 to 145 °C.
The same measure for `CC1(C)OC(=O)Nc2ccc(-c3cccc(C(=O)c4ccccc4)c3)cc21` [Example 51, 6-(3-Benzoyl-phenyl)-4,4-dimethyl-1,4dihydro-benzo[d][1,3]-oxazin-2-one]: 156 to 157 °C.
Under `CC1(C)OC(=O)Nc2c(Br)cc(-c3ccc(F)c(C#N)c3)cc21` [Example 125, 5-(8-Bromo-4,4-dimethyl-2-oxo-1,4-dihydro-2H-3,1-benzoxazin-6-yl)-2-fluorobenzonitrile] stands 235 to 236 °C; under `COc1cccc(-c2ccc3c(c2)C(C)(C)OC(=O)N3)c1` [Example 6, 6-(3-Methoxy-phenyl)-4,4dimethyl-1,4-dihydro-benzo[d][1,3]-oxazin-2-one], 164 to 165 °C; under `CC1(C)OC(=O)Nc2c(Br)cc(-c3cc(F)cc(C#N)c3)cc21` [Example 124, 3-(8Bromo-4,4-dimethyl-2-oxo-1,4-dihydro-2H-3,1-benzoxazin-6-yl)-5-fluorobenzonitrile], 216 to 217 °C.
The same measure for `N#Cc1cc(-c2ccc3c(c2)C2(CCCCC2)OC(=O)N3)cs1` [Example 108, 4-(1,2-Dihydro-2-oxospiro[4H-3,1-benzoxazine-4,1-cyclohexan]-6-yl)2-thiophenecarbonitrile]: 230 to 232 °C.
Consider `CC1(C)OC(=O)Nc2ccc(-c3cccc(C#N)c3F)cc21` [Example 120, 3-(4,4-Dimethyl-2-oxo-1,4-dihydro-2H-benzo[d][1,3]oxazin-6-yl)-2fluoro-benzonitrile], for which the melting point lay in the range of 192 to 198 °C.
Under `CCC1(CC)NC(=O)Oc2ccc(-c3cccc(Cl)c3)cc21` [Example 25, 6-(3-Chlorophenyl)-4,4-diethyl-1,4-dihydrobenzo[d][3,1]oxazin-2-one] stands 150 to 151 °C; under `CC1(C)OC(=O)Nc2ccc(-c3ccc(CC#N)c(F)c3)cc21` [Example 135, 4-(4,4Dimethyl-2-oxo-1,4-dihydro-2H-benzo[d][1,3]oxazin-6yl)-2-fluorophenylacetonitrile], 253 to 256 °C.
As for `CC1(C)OC(=O)Nc2ccc(-c3ccc[nH]3)cc21` [Example 97, 4,4-Dimethyl-6-(1H-pyrrol-2yl)-1,4-dihydro-benzo[d][1,3]-oxazin-2one], the melting point was 202 °C (dec.).
Under `CC1(C)OC(=O)Nc2ccc(-c3cc(Br)cc(OC(F)(F)F)c3)cc21` [Example 57, 6-(3-Bromo-5-trifluoromethoxy-Phenyl)-4,4-dimethyl-1,4-dihydrobenzo[d][1,3]-oxazin-2-one] stands 214 to 216 °C; under `N#Cc1cc(F)cc(-c2ccc3c(c2)C2(CCCCC2)OC(=O)N3)c1` [Example 107, 3-(1,2-Dihydro-2-oxospiro[4H-3,1-benzoxazine-4,1-cyclohexan]-6-yl)-5-fluorobenzonitrile], 250 to 253 °C; under `COc1cccc(-c2ccc3c(c2)NC(=O)OC3(C)C)c1` [Example 49, 7-(3-Methoxy-phenyl)-4,4-dimethyl-1,4-dihydro-benzo[d][1,3]-oxazin-2-one], 167 to 168 °C.
The same measure for `CC1(C)OC(=O)Nc2ccc(-c3ccccc3Cl)cc21` [Example 7, 6-(2-Chloro-phenyl)-4,4-dimethyl-1,4-dihydro-benzo[d][1,3]oxazin-2-one]: 181 to 182 °C.
The same measure for `CC1(C)OC(=O)Nc2ccc(-c3cc(Cl)cc(C#N)c3)cc21` [Example 78, 3-Chloro-5(4,4-dimethyl-2-oxo-1,4-dihydro-2H-benzo[d][1,3]oxazin-6-yl)-benzonitrile]: 256 to 257 °C.
